According to PubChem BioAssay (NCI):
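Exposure lasted 48 hours, with cells grown in 96-well plates and compounds tested at five concentrations. TGI: concentration producing complete growth inhibition.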

Columns and labels:
Assay in all cases: NCI-60 cell line screen, 48 h
U251 CNS = test system: U251 CNS
HCT-116 colon = test system: HCT-116 colon
NCI-H226 lung = test system: NCI-H226 lung
786-0 renal = test system: 786-0 renal
UACC-62 melanoma = test system: UACC-62 melanoma
A549 NSCLC = test system: A549 NSCLC
SK-OV-3 ovarian = test system: SK-OV-3 ovarian
OVCAR-8 ovarian = test system: OVCAR-8 ovarian
NCI-H23 lung = test system: NCI-H23 lung
NCI-H460 lung = test system: NCI-H460 lung
SK-MEL-28 melanoma = test system: SK-MEL-28 melanoma
UACC-257 melanoma = test system: UACC-257 melanoma
SNB-75 CNS = test system: SNB-75 CNS
CCRF-CEM leukemia = test system: CCRF-CEM leukemia

Measured: TGI

COc1ccc2c(c1)N=C1CSC(c3cc([N+](=O)[O-])ccc3Cl)N1C2 (stereo unspecified)
45.4 µM: NCI-H460 lung
62.4 µM: NCI-H23 lung
71.2 µM: U251 CNS
42.1 µM: UACC-62 melanoma
47.4 µM: HCT-116 colon
> 100 µM: NCI-H226 lung | A549 NSCLC | OVCAR-8 ovarian
83.7 µM: SK-MEL-28 melanoma
37.9 µM: UACC-257 melanoma
47.5 µM: SNB-75 CNS
89.3 µM: 786-0 renal
65.1 µM: SK-OV-3 ovarian

CC(=O)O[C@H]1C(=O)[C@@]2(C)C(C(OC(=O)c3ccccc3)[C@]3(O)CC(OC(=O)C(O)C(NC(=O)c4ccc(C)cc4)c4ccccc4)C(C)=C1C3(C)C)[C@]1(OC(C)=O)CO[C@@H]1C[C@@H]2O (stereo partly specified)
0.411 µM: HCT-116 colon
0.0486 µM: SNB-75 CNS
7.44 µM: UACC-62 melanoma
0.0284 µM: SK-OV-3 ovarian
not listed: NCI-H226 lung | SK-MEL-28 melanoma
> 25 µM: all other assays above

CCOP(=O)(OCC)/C(C#N)=C/c1cccn1CC(C)C
not listed: CCRF-CEM leukemia
> 100 µM: all other assays above

Cc1n[nH]c(=O)n1/N=C/c1c[nH]c2ccccc12
not listed: NCI-H226 lung
> 100 µM: all other assays above

CCOC(=O)C1=c2[nH]c3cccc4cccc(c43)n2C=C(C(C)=O)C1CC(C)=O (stereo unspecified)
not listed: NCI-H226 lung
> 100 µM: all other assays above

CN(C)c1nc(NN)c2c(-c3ccccc3)c(-c3ccccc3)oc2n1
not listed: NCI-H460 lung
> 100 µM: all other assays above

O=C(/C=C/c1ccco1)CC(=O)/C=C/c1ccco1
17.5 µM: SK-MEL-28 melanoma
19.2 µM: 786-0 renal
17.4 µM: HCT-116 colon | NCI-H23 lung
19.7 µM: U251 CNS
16.3 µM: CCRF-CEM leukemia
24.5 µM: A549 NSCLC
> 31.6 µM: UACC-62 melanoma | OVCAR-8 ovarian | SNB-75 CNS
> 100 µM: UACC-257 melanoma
22.2 µM: NCI-H460 lung

N#CCCN(CCC#N)c1ccc(/C=C2\N=C(c3ccccc3)N(c3ccccn3)C2=O)cc1
not listed: NCI-H23 lung | SNB-75 CNS
> 100 µM: all other assays above
